Experimental data: US4885275A, “Vancomycin-HCL solutions and the lyophilization thereof” (Eli Lilly and Company, priority 1987, dated 1989)
Counter-ions that a name gives are not always drawn.

Experiments:
[1] = Gel inhibition in concentrated aqueous vancomycin.HCl solutions; assay type: physicochemical; design: key: G = gel formation; NG = No gel formation; details: test compound 10% v/v in aqueous vancomycin.HCl 20% w/v, pH about 3.2, Waring blender high speed 3 minutes
Procedure: The experiments were carried out to determine the effect on gel formation in aqueous solutions of vancomycin HCl at a concentration of 20% w/v. The solutions were prepared as follows. An aqueous vehicle containing the test compound in an amount sufficient to provide 10% v/v in the final solution was prepared with water. Vancomycin-free base was added to the aqueous vehicle in an amount sufficient to provide a 20% w/v concentration in the final solution. The slurry of base in the aqueous vehicle was treated with 20% hydrochloric acid to form vancomycin.HCl salt and to adjust the pH to about 3.2. The solution which formed was kept covered to avoid loss of the test compound and water was added to the final volume. The solution was blended in a Waring blender at high speed for 3 minutes and then transferred to clear bottles to observe for gel formation.

[2] = room temperature; cited from earlier work
[3] = Vancomycin.HCl solubility in gel inhibitory compounds (UV or HPLC assay)
Procedure: The solubility of vancomycin.HCl in some of the gel inhibitory compounds was determined as follows. A two-gram quantity of chromatographically purified vancomycin hydrochloride was added to 100 ml of each compound under consideration. Fresh compound was used when possible to minimize the water content. […] The mixtures were stirred at a moderate rate for 4 hours, with sample aliquots removed at timepoints of 10 minutes, 2 hours and 4 hours. The mixtures were then allowed to stand overnight. A final aliquot was taken at the 20- to 24-hour timepoint. The sample aliquots were assayed by UV absorption measurements or HPLC with UV detection.
UV absorption at 280 nm was used to measure the concentration of vancomycin in the sample solutions made with the transparent solvents. Each sample was filtered through medium-pore filter paper and diluted with water to provide an absorption less than 1.0 A. The remaining compounds, acetone and ethyl acetate, required solvent removal before the measurement step. After filtration, sample aliquots were dried under nitrogen and reconstituted with an aqueous buffer for assay by HPLC. The propylene glycol sample were also assayed by HPLC after appropriate dilution without a drying step.

[4] = Gel formation of aqueous vancomycin hydrochloride solutions; assay type: physicochemical; details: particularly when agitated by stirring, shaking or blending

With `CC(C)=O` [Acetone] the “Test Result (gel formation)” value [1] was “NG”.
With `CCO` [Ethanol] the “Test Result (gel formation)” value [1] was “NG”.
In the case of `CCOC(C)=O` [Ethyl acetate], the “Test Result (gel formation)” value [1] was “G”.
With `OCC(O)CO` [Glycerin] the “Test Result (gel formation)” value [1] was “G”.
For `CC(C)O` [Isopropanol], the “Test Result (gel formation)” value [1] was “NG”.
For `CC(=O)OC(C)C` [Isopropyl acetate], the “Test Result (gel formation)” value [1] was “NG”.
In the case of `CO` [Methanol], the “Test Result (gel formation)” value [1] was “G”.
For `CCC(C)=O` [Methyl ethyl ketone], the “Test Result (gel formation)” value [1] was “NG”.
With `CC(O)CO` (centres unmarked) [Propylene glycol] the “Test Result (gel formation)” value [1] was “NG”.
In the case of `CN[C@H](CC(C)C)C(=O)N[C@H]1C(=O)N[C@@H](CC(N)=O)C(=O)N[C@H]2C(=O)N[C@H]3C(=O)N[C@H](C(=O)N[C@H](C(=O)O)c4cc(O)cc(O)c4-c4cc3ccc4O)[C@H](O)c3ccc(c(Cl)c3)Oc3cc2cc(c3O[C@@H]2O[C@H](CO)[C@@H](O)[C@H](O)[C@H]2O[C@H]2C[C@](C)(N)[C@H](O)[C@H](C)O2)Oc2ccc(cc2Cl)[C@H]1O` [Vancomycin.HCl, vancomycin hydrochloride], the solubility in water [2] is listed as “about 200 mg/ml”, the Solubility ([3]; in acetone, 10 min, HPLC assay) is listed as < 10 µg/mL and the Solubility ([3]; in acetone, 2 hrs, HPLC assay) is listed as < 10 µg/mL. The Solubility ([3]; in acetone, 4 hrs, HPLC assay) was < 10 µg/mL, the Solubility ([3]; in acetone, 20 hrs, HPLC assay) was < 10 µg/mL and the Solubility ([3]; in ethyl acetate, 10 min, HPLC assay) was < 10 µg/mL. The Solubility ([3]; in ethyl acetate, 2 hrs, HPLC assay) was < 10 µg/mL, the Solubility ([3]; in ethyl acetate, 4 hrs, HPLC assay) was < 10 µg/mL and the Solubility ([3]; in ethyl acetate, 20 hrs, HPLC assay) was < 10 µg/mL. The “concentration at which gel forms in ethyl alcohol” value ([3]; in ethyl alcohol (non-aqueous)) was “about 2 mg/ml”, the Solubility ([3]; in isopropanol, 10 min, UV assay) was 40 µg/mL and the Solubility ([3]; in isopropanol, 2 hrs, UV assay) was 40 µg/mL. For the same compound, the Solubility ([3]; in isopropanol, 4 hrs, UV assay) was 100 µg/mL, the Solubility ([3]; in isopropanol, 20 hrs, UV assay) was 70 µg/mL and the Solubility ([3]; in methanol, 10 min, UV assay) was 5300 µg/mL. It also gave a Solubility ([3]; in methanol, 2 hrs, UV assay) of 3700 µg/mL, a Solubility ([3]; in methanol, 4 hrs, UV assay) of 3100 µg/mL and a Solubility ([3]; in methanol, 20 hrs, UV assay) of 2400 µg/mL. For the same compound, the Solubility ([3]; in propylene glycol, 10 min, HPLC assay) was 3000 µg/mL and the “concentration in water above which solutions form gels” value [4] was “above 12 % w/v”.
